According to ChEMBL document CHEMBL5226391, “Valhidepsin Lipopeptides from Chromobacterium vaccinii: Structures, Biosynthesis, and Coregulation with FR900359 Production” (J Nat Prod, 2023):
Calls of active or inactive are those of the source. No cut-off for these calls is given here.

What was measured:
A549 = test: Antiproliferative activity against human A549 cells assessed as reduction in cell viability at 50 uM incubated for 72 hrs by cellTiter-glo assay; assay type: functional, cell-based
NCI-H647 = test: Antiproliferative activity against human NCI-H647 cells assessed as reduction in cell viability at 50 uM incubated for 72 hrs by cellTiter-glo assay; assay type: functional, cell-based
NCI-H2228 = test: Antiproliferative activity against human NCI-H2228 cells assessed as reduction in cell viability at 50 uM incubated for 72 hrs by cellTiter-glo assay; assay type: functional, cell-based
RERF-LC-MS = test: Antiproliferative activity against human RERF-LC-MS cells assessed as reduction in cell viability at 50 uM incubated for 72 hrs by cellTiter-glo assay; assay type: functional, cell-based
Escherichia coli = test: Antibacterial activity against Escherichia coli ATCC 25922; assay type: functional, organism-based
Pseudomonas aeruginosa = test: Antibacterial activity against Pseudomonas aeruginosa PA14; assay type: functional, organism-based
Bacillus subtilis = test: Antibacterial activity against Bacillus subtilis ATCC 23857; assay type: functional, organism-based
Saccharomyces cerevisiae = test: Antimicrobial activity against Saccharomyces cerevisiae YSD1; assay type: functional, organism-based
[1] = test system: Schizosaccharomyces pombe; test: Antifungal activity against Schizosaccharomyces pombe H1374; assay type: functional, organism-based
[2] = Stability of compound at pH 9 assessed as half life measured at 0.5 to 92 hrs by LC-UV/MS analysis; assay type: physicochemical; settings: buffer, time 0.5-92 hrs
[3] = Stability of compound at pH 8.5 assessed as half life measured at 0.5 to 92 hrs by LC-UV/MS analysis; assay type: physicochemical; settings: buffer, time 0.5-92 hrs
[4] = Stability of compound at pH 8 assessed as half life measured at 0.5 to 92 hrs by LC-UV/MS analysis; assay type: physicochemical; settings: buffer, time 0.5-92 hrs
[5] = Stability of compound at pH 7.5 measured at 0.5 to 92 hrs by LC-UV/MS analysis; assay type: physicochemical; settings: buffer, time 0.5-92 hrs

half-life [2] [h] | half-life [3] [h] | half-life [4] [h] | Stability [5] | Compound | Activity (A549) | Activity (NCI-H647) | Activity (NCI-H2228) | Activity (RERF-LC-MS) | Activity (Escherichia coli) | Activity (Pseudomonas aeruginosa) | Activity (Bacillus subtilis) | Activity (Saccharomyces cerevisiae) | Activity [1]
 |  |  |  | CCCCCC/C=C\CC(=O)N[C@@H](CO)C(=O)N[C@@H](C(=O)N[C@@H](Cc1c[nH]cn1)C(=O)N[C@H](C(=O)N[C@H](CC(C)C)C(=O)N[C@H](C(=O)O)C(C)C)C(C)C)C(C)C | inactive | inactive | inactive | inactive | inactive | inactive | inactive | inactive | inactive
7 | 26 | 5 | Stable | CCCCCC/C=C\CC(=O)N[C@H]1COC(=O)[C@H](C(C)C)NC(=O)[C@@H](CC(C)C)NC(=O)[C@H](C(C)C)NC(=O)[C@H](Cc2c[nH]cn2)NC(=O)[C@@H](C(C)C)NC1=O | Active | Active | Active | Active | inactive | inactive | Active | Active | Active
